Tests used:
[1] = target: T1, rat P450 2B1 (Rattus norvegicus, UniProt P00176); experiment: biochemical; format: biochemical; conditions: for inhibition potency for P450 2B1 (in words): rat P450 2B1, PROD activity
T1 sequence (P00176 1-491): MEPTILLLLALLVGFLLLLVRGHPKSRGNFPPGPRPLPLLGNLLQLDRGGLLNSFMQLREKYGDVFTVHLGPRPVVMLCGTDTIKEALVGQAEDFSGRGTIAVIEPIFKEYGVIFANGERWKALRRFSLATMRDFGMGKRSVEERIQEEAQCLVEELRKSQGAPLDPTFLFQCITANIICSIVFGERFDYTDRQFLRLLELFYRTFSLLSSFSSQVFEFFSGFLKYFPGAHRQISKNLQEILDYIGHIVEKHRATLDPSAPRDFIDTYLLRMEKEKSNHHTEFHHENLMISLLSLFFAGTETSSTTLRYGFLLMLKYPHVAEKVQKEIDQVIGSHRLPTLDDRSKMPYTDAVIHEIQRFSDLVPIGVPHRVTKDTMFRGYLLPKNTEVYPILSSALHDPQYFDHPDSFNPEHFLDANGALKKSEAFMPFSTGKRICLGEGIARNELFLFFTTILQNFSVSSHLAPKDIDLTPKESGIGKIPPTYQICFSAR

[2] = target: T2, human P450 1A1 (Homo sapiens, UniProt P04798); experiment: biochemical
T2 sequence (P04798 1-512): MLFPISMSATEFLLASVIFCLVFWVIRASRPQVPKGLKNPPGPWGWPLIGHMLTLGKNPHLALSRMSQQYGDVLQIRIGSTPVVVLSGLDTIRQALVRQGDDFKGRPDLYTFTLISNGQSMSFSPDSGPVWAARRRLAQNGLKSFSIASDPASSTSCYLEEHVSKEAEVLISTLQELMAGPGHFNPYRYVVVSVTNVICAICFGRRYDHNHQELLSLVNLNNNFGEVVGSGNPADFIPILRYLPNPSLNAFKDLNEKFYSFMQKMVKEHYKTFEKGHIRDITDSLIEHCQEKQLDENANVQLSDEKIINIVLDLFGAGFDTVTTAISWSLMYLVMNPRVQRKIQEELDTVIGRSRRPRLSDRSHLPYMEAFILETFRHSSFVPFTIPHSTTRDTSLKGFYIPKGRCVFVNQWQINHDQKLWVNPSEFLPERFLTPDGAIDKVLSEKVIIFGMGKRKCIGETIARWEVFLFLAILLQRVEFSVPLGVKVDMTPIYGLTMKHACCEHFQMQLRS

[3] = target: T3, human P450 1A2 (Homo sapiens, UniProt P05177); experiment: 7-methoxyresorufin O-demethylation; format: biochemical
T3 sequence (P05177 1-516): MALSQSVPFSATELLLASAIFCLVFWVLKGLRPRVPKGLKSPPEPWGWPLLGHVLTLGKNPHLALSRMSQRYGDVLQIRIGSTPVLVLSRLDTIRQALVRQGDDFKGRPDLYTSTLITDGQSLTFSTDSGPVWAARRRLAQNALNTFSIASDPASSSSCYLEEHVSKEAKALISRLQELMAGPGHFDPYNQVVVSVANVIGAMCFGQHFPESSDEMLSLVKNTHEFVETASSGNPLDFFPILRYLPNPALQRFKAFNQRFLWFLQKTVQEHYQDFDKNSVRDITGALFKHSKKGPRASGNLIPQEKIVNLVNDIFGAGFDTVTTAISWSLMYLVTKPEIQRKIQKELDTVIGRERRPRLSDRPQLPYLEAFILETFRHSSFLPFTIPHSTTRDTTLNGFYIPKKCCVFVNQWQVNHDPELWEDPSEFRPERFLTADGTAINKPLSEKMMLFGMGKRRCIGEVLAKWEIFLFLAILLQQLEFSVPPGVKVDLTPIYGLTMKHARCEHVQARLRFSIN

## CCCOc1ccc2c(c1)[nH]c1ccccc12 [VII, 2-propoxy-9H-carbazole]
[1]
  IC50: 10.6 µM
[2]
  IC50: 26.4 µM

## C#CCOc1cccc2[nH]c3ccccc3c12 [IV, 4-(prop-2-yn-1-yloxy)-9H-carbazole]
[1]
  IC50: 1.78 µM
  inhibition potency for P450 2B1 (in words): good inhibition potency
[2]
  IC50: 6.64 µM

## Oc1ccc2c(c1)[nH]c1ccccc12 [2-hydroxycarbazole, 2-Hydroxycarbazole, reference compound]
[3]
  IC50: 59.7 µM
[1]
  IC50: 41.6 µM
[2]
  IC50: 70.5 µM

## CCOc1ccc2c(c1)[nH]c1ccccc12 [VI, 2-ethoxy-9H-carbazole]
[1]
  IC50: 8.43 µM
[2]
  IC50: 15.6 µM

## COc1cccc2[nH]c3ccccc3c12 [I, 4-methoxy-9H-carbazole]
[1]
  IC50: 1.83 µM
  inhibition potency for P450 2B1 (in words): good inhibition potency
[2]
  IC50: 21.5 µM

## CCCOc1cccc2[nH]c3ccccc3c12 [III, 4-propoxy-9H-carbazole]
[1]
  IC50: 0.659 µM
  inhibition potency for P450 2B1 (in words): good inhibition potency
[2]
  IC50: 8.73 µM

## C#CCOc1ccc2c(c1)[nH]c1ccccc12 [VIII, 2-(prop-2-yn-1-yloxy)-9H-carbazole]
[1]
  IC50: 5.26 µM
[2]
  IC50: 8.65 µM

## COc1ccc2c(c1)[nH]c1ccccc12 [V, 2-methoxy-9H-carbazole]
[1]
  IC50: 13.3 µM
[2]
  IC50: 35 µM

## Oc1cccc2[nH]c3ccccc3c12 [4-hydroxycarbazole, 4-Hydroxycarbazole, reference compound]
[3]
  IC50: 7.33 µM
[1]
  IC50: > 100 µM
[2]
  IC50: 36.8 µM

## CCOc1cccc2[nH]c3ccccc3c12 [II, 4-ethoxy-9H-carbazole]
[1]
  IC50: 1.14 µM
  inhibition potency for P450 2B1 (in words): good inhibition potency
[2]
  IC50: 10.3 µM

From publication PMC4286351 (Journal of undergraduate chemistry research, 2013)
